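Briefly, cells in 96-well plates were exposed to five compound concentrations for 48 h, and endpoints were estimated by linear interpolation. The concentration for 50% growth inhibition is given as GI50. TGI: total growth inhibition.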
What was measured:
Assay in all cases: inhibition of tumour cell growth, NCI panel, 48 h
SW-620 colon = tested on: SW-620 colon
CCRF-CEM leukemia = tested on: CCRF-CEM leukemia
SN12C renal = tested on: SN12C renal
MALME-3M melanoma = tested on: MALME-3M melanoma
HT29 colon = tested on: HT29 colon
HOP-62 NSCLC = tested on: HOP-62 NSCLC
M14 melanoma = tested on: M14 melanoma
MOLT-4 leukemia = tested on: MOLT-4 leukemia
OVCAR-8 ovarian = tested on: OVCAR-8 ovarian
OVCAR-4 ovarian = tested on: OVCAR-4 ovarian

Structure (SMILES) | GI50 (SW-620 colon) [µM] | TGI (SW-620 colon) [µM] | GI50 (CCRF-CEM leukemia) [µM] | TGI (CCRF-CEM leukemia) [µM] | GI50 (SN12C renal) [µM] | TGI (SN12C renal) [µM] | GI50 (MALME-3M melanoma) [µM] | TGI (MALME-3M melanoma) [µM] | GI50 (HT29 colon) [µM] | TGI (HT29 colon) [µM] | GI50 (HOP-62 NSCLC) [µM] | TGI (HOP-62 NSCLC) [µM] | GI50 (M14 melanoma) [µM] | TGI (M14 melanoma) [µM] | GI50 (MOLT-4 leukemia) [µM] | TGI (MOLT-4 leukemia) [µM] | GI50 (OVCAR-8 ovarian) [µM] | TGI (OVCAR-8 ovarian) [µM] | GI50 (OVCAR-4 ovarian) [µM] | TGI (OVCAR-4 ovarian) [µM]
COc1cccc2c(=O)c3c(sc12)c(NCCCNCCO)nc1ccccc13 | 1.38 | 2.9 | 1.53 | 3.18 | 1.51 | 3.06 | 1.64 | 3.15 | 1.54 | 3.75 | 1.2 | 2.81 | 1.7 | 3.22 | 1.58 | 3.31 | 1.78 | 3.97 | 1.63 | 3.38
CC(C)[O-].CC(C)[O-].CN(CCN(C)Cc1cc(F)cc(F)c1[O-])Cc1cc(F)cc(F)c1[O-].[Ti+4] | 0.828 | 3.3 | 0.512 | > 35.1 | 1.53 | 7.31 | 0.379 | 1.43 | 1.72 | 3.81 | 0.634 | 3.68 | 0.638 | 2.3 | 0.9 | 8.47 | 1.09 | 6.55 | 0.717 | 7.18
Cc1c2ccncc2c(C)c2c1[nH]c1ccc(O)c(OCC(F)(F)F)c12 |  | 19.2 |  | 7.18 |  | 20.8 |  | 22.3 |  | > 7.5 |  | 20.9 |  | 19.7 |  | 6.04 |  | 26 |  | 14
COc1ccc(-c2c(C3=NCCCN3)nnn2-c2ccc([N+](=O)[O-])cc2)cc1 |  | > 100 |  | > 100 |  | > 100 |  | > 100 |  | > 100 |  | > 100 |  | > 100 |  | > 100 |  | > 100 |  | > 100
O=C(c1cccs1)C1NO[N+]([O-])=C1c1cccs1 (stereo not given) | 1.54 | 3.01 | 1.23 | 3.54 | 9.49 | 21.8 | 0.517 | 1.19 | 1.94 | 3.65 | 4.77 | 11.4 | 2.71 | 7.87 | 2.86 | 9.19 | 2.9 | > 21.9 | 2.13 | 4.97
CCN(CC)c1ccc(/C=C/C2=[N+](C)c3ccccc3C2(C)C)c(C)c1 | 0.0703 | 12.8 | 0.0271 | 4.68 | 0.0738 | 1.24 | 0.155 | 1.09 | 0.0463 | 1.32 | 0.0983 | 1.74 | 0.0853 | 1.64 | 0.0512 | 1.55 | 0.0629 | 3.12 | 0.0524 | 11.2
N#Cc1c(-c2ccco2)cc(-c2ccccc2)[nH]c1=O |  | > 100 |  | > 100 |  | > 100 |  | > 100 |  | > 100 |  | > 100 |  | > 100 |  | > 100 |  | > 100 |  | > 100

Reference: PubChem BioAssay (NCI)
